Assay results published in patent US11180462B2, “Microbiocidal oxadiazole derivatives” (SYNGENTA PARTICIPATIONS AG, priority 2015, dated 2021).

Assays:
[1] = system: Puccinia recondita f. Sp. Tritici; experiment: Fungicidal activity against Puccinia recondita f. sp. tritici / wheat / leaf disc preventative (brown rust); assay type: in vivo; settings: foliar, 200 ppm in the applied formulation, wheat leaf segments, preventative, compared to untreated control leaf disks, read-out: disease control
Protocol: Leaf disks or leaf segments of various plant species are cut from plants grown in a greenhouse. The cut leaf disks or segments are placed in multiwell plates (24-well format) onto water agar. The leaf disks are sprayed with a test solution before (preventative) or after (curative) inoculation. Compounds to be tested are prepared as DMSO solutions (max. 10 mg/ml) which are diluted to the appropriate concentration with 0.025% Tween20 just before spraying. The inoculated leaf disks or segments are incubated under defined conditions (temperature, relative humidity, light, etc.) according to the respective test system. A single evaluation of disease level is carried out 3 to 14 days after inoculation, depending on the pathosystem. Percent disease control relative to the untreated check leaf disks or segments is then calculated.
Fungicidal Activity Against Puccinia recondita f. Sp. Tritici/Wheat/Leaf Disc Preventative (Brown Rust)
Wheat leaf segments cv. Kanzler were placed on agar in multiwell plates (24-well format) and sprayed with the formulated test compound diluted in water. The leaf disks were inoculated with a spore suspension of the fungus 1 day after application. The inoculated leaf segments were incubated at 19° C. and 75% relative humidity (rh) under a light regime of 12 hours light/12 hours darkness in a climate cabinet and the activity of a compound was assessed as percent disease control compared to untreated when an appropriate level of disease damage appears in untreated check leaf segments (7 to 9 days after application).
The following compounds at 200 ppm in the applied formulation give at least 80% disease control in this test when compared to untreated control leaf disks under the same conditions, which show extensive disease development.

[2] = system: Glomerella lagenarium (Colletotrichum lagenarium); experiment: Fungicidal activity against Glomerella lagenarium (Colletotrichum lagenarium) liquid culture / cucumber / preventative (anthracnose); assay type: cell-based; settings: Colletotrichum orbiculare; 20 ppm in the applied formulation; liquid culture (PDB), growth inhibition measured photometrically after 3 to 4 days; compared to untreated control; read-out: disease control
Outline: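 Percent activity against the untreated check was derived from photometric growth measurements made 2 to 7 days after conidia in potato dextrose broth were combined with compound at 20 ppm. Cultures were kept dark at 24 °C and 96% humidity.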

Structure (SMILES) | pest or weed control at 200 ppm [1] [%] | inhibition of growth at 20 ppm [2] [%]
CCCON(Cc1ccc(-c2noc(C(F)(F)F)n2)cc1)C(=O)C1CCCCO1 (centres unmarked) [Compound 1.283, N-propoxy-N-[[4-[5-(trifluoromethyl)-1,2,4-oxadiazol-3-yl]phenyl]methyl]-tetrahydropyran-2-carboxamide] | ≥ 80 | ≥ 80
CCCON(Cc1ccc(-c2noc(C(F)(F)F)n2)cc1)C(=O)COC [Compound 1.287, 2-methoxy-N-propoxy-N-[[4-[5-(trifluoromethyl)-1,2,4-oxadiazol-3-yl]phenyl]methyl]-acetamide] | ≥ 80 | ≥ 80
CCCON(Cc1ccc(-c2noc(C(F)(F)F)n2)cc1)C(=O)COCCOC [Compound 1.298, 2-(2-methoxyethoxy)-N-propoxy-N-[[4-[5-(trifluoromethyl)-1,2,4-oxadiazol-3-yl]phenyl]methyl]-acetamide] | ≥ 80 | ≥ 80
C#CC(=O)N(Cc1ccc(-c2noc(C(F)(F)F)n2)cc1)OCCC [Compound 1.305, N-propoxy-N-[[4-[5-(trifiuoromethyl)-1,2,4-oxadiazol-3-yl]phenyl]methyl]-prop-2-ynamide] | ≥ 80 | ≥ 80
CCCON(Cc1ccc(-c2noc(C(F)(F)F)n2)cc1)C(=O)COC(C)=O [Compound 1.306, [2-oxo-2-[propoxy-[[4-[5-(trifluoromethyl)-1,2,4-oxadiazol-3-yl]phenyl]methyl]-amino]ethyl] acetate] | ≥ 80 | ≥ 80
CCCON(Cc1ccc(-c2noc(C(F)(F)F)n2)cc1)C(=O)C1(C#N)CC1 [Compound 1.313, 1-cyano-N-propoxy-N-[[4-[5-(trifluoromethyl)-1,2,4-oxadiazol-3-yl]phenyl]methyl]-cyclopropane-carboxamide] | ≥ 80 | ≥ 80
CCCON(Cc1ccc(-c2noc(C(F)(F)F)n2)cc1)C(C)=O [Compound 1.320, N-propoxy-N-[[4-[5-(trifluoromethyl)-1,2,4-oxadiazol-3-yl]phenyl]methyl]-acetamide] | ≥ 80 | ≥ 80
COCCN(Cc1ccc(-c2noc(C(F)(F)F)n2)cc1)C(=O)C=CC(F)(F)F [Compound 1.338, 4,4,4-trifluoro-N-(2-methoxyethyl)-N-[[4-[5-(trifluoromethyl)-1,2,4-oxadiazol-3-yl]phenyl]methyl]but-2-enamide] | ≥ 80 | ≥ 80
COCCN(Cc1ccc(-c2noc(C(F)(F)F)n2)cc1)C(=O)C=CC(C)=O [Compound 1.352, N-(2-methoxyethyl)-4-oxo-N-[[4-[5-(trifluoromethyl)-1,2,4-oxadiazol-3-yl]phenyl]methyl]-pent-2-enamide] | ≥ 80 | ≥ 80
CC#CC(=O)N(Cc1ccc(-c2noc(C(F)(F)F)n2)cc1)C(C)CC (centres unmarked) [Compound 1.367, N-sec-butyl-N-[[4-[5-(trifluoromethyl)-1,2,4-oxadiazol-3-yl]phenyl]methyl]-but-2-ynamide] | ≥ 80 | ≥ 80
CCC(C)N(Cc1ccc(-c2noc(C(F)(F)F)n2)cc1)C(=O)C1CCCC1 (centres unmarked) [Compound 1.376, N-sec-butyl-N-[[4-[5-(trifluoromethyl)-1,2,4-oxadiazol-3-yl]phenyl]methyl]-cyclopentane-carboxamide] | ≥ 80 | ≥ 80
CCC(C)N(Cc1ccc(-c2noc(C(F)(F)F)n2)cc1)C(=O)c1ccoc1 (centres unmarked) [Compound 1.405, N-sec-butyl-N-[[4-[5-(trifluoromethyl)-1,2,4-oxadiazol-3-yl]phenyl]methyl]-furan-3-carboxamide] | ≥ 80 | ≥ 80
CC#CC(=O)N(Cc1ccc(-c2noc(C(F)(F)F)n2)cc1)CC1CCCO1 (centres unmarked) [Compound 1.410, N-(tetrahydrofuran-2-ylmethyl)-N-[[4-[5-(trifluoromethyl)-1,2,4-oxadiazol-3-yl]phenyl]methyl]-2-ynamide] | ≥ 80 | ≥ 80
CC=CC(=O)N(Cc1ccc(-c2noc(C(F)(F)F)n2)cc1)CC1CCCO1 (centres unmarked) [Compound 1.413, N-(tetrahydrofuran-2-ylmethyl)-N-[[4-[5-(trifluoromethyl)-1,2,4-oxadiazol-3-yl]phenyl]methyl]but-2-enamide] | ≥ 80 | ≥ 80
O=C(C1CC1(F)F)N(Cc1ccc(-c2noc(C(F)(F)F)n2)cc1)CC1CCCO1 (centres unmarked) [Compound 1.414, 2,2-difluoro-N-(tetrahydrofuran-2-ylmethyl)-N-[[4-[5-(trifluoromethyl)-1,2,4-oxadiazol-3-yl]phenyl]methyl]-cyclopropane-carboxamide] | ≥ 80 | ≥ 80
CC(C)CC(=O)N(Cc1ccc(-c2noc(C(F)(F)F)n2)cc1)CC1CCCO1 (centres unmarked) [Compound 1.423, 3-methyl-N-(tetrahydrofuran-2-ylmethyl)-N-[[4-[5-(trifluoromethyl)-1,2,4-oxadiazol-3-yl]phenyl]methyl]-butanamide] | ≥ 80 | ≥ 80
O=C(C1CCC1)N(Cc1ccc(-c2noc(C(F)(F)F)n2)cc1)CC1CCCO1 (centres unmarked) [Compound 1.424, N-(tetrahydrofuran-2-ylmethyl)-N-[[4-[5-(trifluoromethyl)-1,2,4-oxadiazol-3-yl]phenyl]methyl]-cyclobutane-carboxamide] | ≥ 80 | ≥ 80
C=CC(=O)N(Cc1ccc(-c2noc(C(F)(F)F)n2)cc1)CC1CCCO1 (centres unmarked) [Compound 1.430, N-(tetrahydrofuran-2-ylmethyl)-N-[[4-[5-(trifluoromethyl)-1,2,4-oxadiazol-3-yl]phenyl]methyl]-prop-2-enamide] | ≥ 80 | ≥ 80
O=C(N(Cc1ccc(-c2noc(C(F)(F)F)n2)cc1)CC1CCCO1)C1(F)CC1 (centres unmarked) [Compound 1.436, 1-fluoro-N-(tetrahydrofuran-2-ylmethyl)-N-[[4-[5-(trifluoromethyl)-1,2,4-oxadiazol-3-yl]phenyl]methyl]-cyclopropane-carboxamide] | ≥ 80 | ≥ 80
CCC(C)C(=O)N(Cc1ccc(-c2noc(C(F)(F)F)n2)cc1)CC1CCCO1 (centres unmarked) [Compound 1.437, 2-methyl-N-(tetrahydrofuran-2-ylmethyl)-N-[[4-[5-(trifluoromethyl)-1,2,4-oxadiazol-3-yl]phenyl]methyl]-butanamide] | ≥ 80 | ≥ 80
CCC(COC)C(=O)N(Cc1ccc(-c2noc(C(F)(F)F)n2)cc1)CC1CCCO1 (centres unmarked) [Compound 1.440, 2-(methoxymethyl)-N-(tetrahydrofuran-2-ylmethyl)-N-[[4-[5-(trifluoromethyl)-1,2,4-oxadiazol-3-yl]phenyl]methyl]-butanamide] | ≥ 80 | ≥ 80
O=C(c1ccoc1)N(Cc1ccc(-c2noc(C(F)(F)F)n2)cc1)CC1CCCO1 (centres unmarked) [Compound 1.449, N-(tetrahydrofuran-2-ylmethyl)-N-[[4-[5-(trifluoromethyl)-1,2,4-oxadiazol-3-yl]phenyl]methyl]-furan-3-carboxamide] | ≥ 80 | ≥ 80
